{"source": "patent US20260097135A1", "about": "“MODIFIED ONCOLYTIC HERPES SIMPLEX VIRUS (oHSV) AND METHODS OF USE THEREOF” (The General Hospital Corporation, priority 2022, published 2026)", "molecules": {"B1": {"name": "R-hIL12: recombinant hIL12 (R&D Systems) with known functional activity, positive control (protein, UniProt P29459 23-219; P29460 23-328, looked up)", "Interleukin-12 subunit alpha": "RNLPVATPDPGMFPCLHHSQNLLRAVSNMLQKARQTLEFYPCTSEEIDHEDITKDKTSTVEACLPLELTKNESCLNSRETSFITNGSCLASRKTSFMMALCLSSIYEDLKMYQVEFKTMNAKLLMDPKRQIFLDQNMLAVIDELMQALNFNSETVPQKSSLEEPDFYKTKIKLCILLHAFRIRAVTIDRVMSYLNAS", "Interleukin-12 subunit beta": "IWELKKDVYVVELDWYPDAPGEMVVLTCDTPEEDGITWTLDQSSEVLGSGKTLTIQVKEFGDAGQYTCHKGGEVLSHSLLLLHKKEDGIWSTDILKDQKEPKNKTFLRCEAKNYSGRFTCWWLTTISTDLTFSVKSSRGSSDPQGVTCGAATLSAERVRGDNKEYEYSVECQEDSACPAAEESLPIEVMVDAVHKLKYENYTSSFFIRDIIKPDPPKNLQLKPLKNSRQVEVSWEYPDTWSTPHSYFSLTFCVQVQGKSKREKKDRVFTDKTSATVICRKNASISVRAQDRYYSSSWSEWASVPCS"}}, "test_system": "human NK cell line NK-92MI", "experiment": "hIL-12 bioactivity: IFN-γ production by NK-92MI cells (ELISA)", "type": "cell-based", "procedure": "HIL12 levels were measured with the human p70 Quantikine ELISA kit (R&D Systems, Bio-Techne, Minneapolis, MN). Functional hIL12 was assessed using human NK cell line NK-92MI (ATCC (CRL-2408)) and hIL-12 induced IFN-γ production. Recombinant hIL12 (R-hIL12; R&D Systems) with known functional activity was used as a positive control. NK-92MI cells were seeded in a 48-well plate at 2×10^4 cells/well. hIL12 produced by virus-infected cells 64 hpi or R-hIL12 was added to NK-92MI cell cultures at the indicated concentrations (with or without 10 μg/ml heparin). HIL12-dependent secretion of IFN-γ into the supernatant was quantified after 24 hrs via ELISA (Human IFN-gamma Quantikine ELISA Kits (R&D systems)).", "note": "Entries after “also recorded” stand apart in the source; their conditions may differ."}
{"molecule": "heparin", "values": [{"measurement": "effect of heparin on hIL-12-induced IFN-γ", "setting": "heparin 10 μg/ml", "result": "greatly enhanced the activity of hIL12; also recorded: synergizes with hIL-12 in stimulating hIFNγ production"}]}
{"molecule": "B1", "values": [{"measurement": "hIL-12 induced IFN-γ production by NK-92MI cells", "setting": "hIL-12 from infected Vero supernatants (64 hpi) or recombinant, 24 hrs", "result": "dose-dependent manner"}]}
